Data from US8987324B2, “Use of simalikalactone E as an anticancer agent” (Institut de Recherche pour le Developpement, priority 2011, dated 2015).
Where two headings read alike, the source gives them in different places.

Experiments:
[1] = system: Rafl-dependent Erk1/2 (MAP kinase) phosphorylation; assay: Rafl-dependent Erk1/2 phosphorylation in inducible HEK-Rafl-ER cells; assay type: cell-based; settings: 30 minutes preincubation, then 1 μM tamoxifen for 1 hour
Experimental: In the experiment presented in FIG. 6B, inducible HEK-Rafl-ER cells were used. These cells express the Raf kinase under the control of the estrogen receptor. The expression of Raf can therefore be induced in the presence of tamoxifen. The cells are preincubated for 30 minutes with increasing doses of Simalikalactone E or U0126, and then treated with 1 μM of tamoxifen for 1 hour. The cells are then lyzed and protein extracts are prepared for western blot analysis. The membranes are finally incubated in the presence of the various antibodies (p-Erk1/2, Erk1/2 and HSP60). Simalikalactone E and U0126 inhibit Rafl-dependent Erk1/2 (MAP kinase) phosphorylation.

[2] = system: certain cell lines; settings: cited from earlier work
[3] = system: K562-Ima-R leukemia cell line; assay: XTT cell viability, K562-Ima-R; assay type: cell-based; settings: 48 hours
Experimental: (§1) B1-1. XTT Cell Viability Measurement
(§2) This test measures the activity of mitochondrial succinate dehydrogenase, which represents an index of cell viability. This enzyme converts XTT into orange formazan. On day 0, the K562-Ima-S (sensitive to Ima), K562-Ima-R (resistant to Ima), A375 or MeWo cells are seeded at 15 000 cells/well (100 μl) in 96-well microplates and stimulated with increasing concentrations of Simalikalactone E [50-500 nM]. After 24 or 48 hours, 50 μl of tetrazolium (XTT reagent) are added to each well and the optical density at 490 nm is read every 30 minutes for 2 to 4 hours. The values obtained, which are an index of mitochondrial metabolism, make it possible to evaluate the percentage of live cells. Each condition is systematically carried out in triplicate.
(§3) The K562-Ima-S and K562-Ima-R tumor lines are incubated for 48 hours with increasing concentrations of Simalikalactone E (0, 100 or 250 nM) in the absence or in the presence of a maximally effective concentration (50 μM) of z-Vad-fmk (Zvad), which is a pan-caspase inhibitor (apoptosis inhibitor).

[4] = system: Vero mammalian cells; settings: cited from earlier work
[5] = system: K562-Ima-S leukemia cell line; assay: XTT cell viability, K562-Ima-S; assay type: cell-based; settings: 48 hours
Experimental: as §1, §2, §3

[6] = system: Erk1/2 kinase (MAP kinase) phosphorylation; assay: Western blot of death markers and Erk1/2 phosphorylation, K562-Ima-R; assay type: cell-based; settings: 250 nM
Experimental: (§4) The characterization of the type of cell death involved in the effect of Simalikalactone E is carried out according to the following protocols: • apoptosis (type I cell death) is studied by assaying caspase activity, caspases being cysteine proteases involved in this type of process. The apoptosis is also quantified by annexin V/propidium iodide co-labeling, the cells which externalize the annexin V at the level of their […] being cells undergoing apoptosis, • autophagic death (type II cell death) is analyzed by assaying cathepsin activity, these proteases being, for their part, involved in the degradation of the intracellular material included in vesicles (autophagolysosomes). […] B1-4. Xenografts of K562-Luc Cells on Nude Mice
(§5) The K562-Ima-S (A) and K562-Ima-R (B) cells are treated for variable periods of time with 250 nM of Simalikalactone E. The cells are then lyzed and protein extracts are prepared for western blot analysis. Finally, the membranes are incubated in the presence of the various anti-PARP, LC3b, p-Erk1/2, Erk1/2 and HSP60 antibodies.

[7] = system: K562 cells; assay: Clonogenic capacity of K562 cells; assay type: cell-based; settings: SkE 100, 250 or 500 nM versus 1 μM imatinib, 7 to 10 days
Experimental: B1-2. Evaluation of the Clonogenic Capacity of K562 Cells
Aliquots of methylcellulose (40% Methocult®, 1% L-glutamine, 5% FCS (fetal calf serum) and 54% IMDM (Iscove's modified Dulbecco's medium)) are heated for 1 h at 37° C. 400 μl of RPMI (Roswell Park Memorial Institute medium), 5% of FCS containing the treatment (1 μM imatinib, 100, 250 or 500 nM SkE), and then 10^3 K562 cells in 200 μl of medium are added to each aliquot. For each condition, 500 μl of the suspension obtained are then deposited in 3 wells of a 24-well plate. A nontreated condition serves as a control. The plates are incubated at 37° C. for 7 to 10 days. 75 μl of MTT tetrazolium salt (Roche) (2.5 mg/ml) are added to each well. The MTT tetrazolium salt is cleaved into purple-colored formazan crystals by the metabolically active cells. After incubation for 4 h at 37° C., the wells are photographed and the clones are quantified using the Image J program.

[8] = system: Plasmodium vinckei petteri; settings: murine model of malaria, cited from earlier work
[9] = mice, orally for 4 days; cited from earlier work
[10] = system: A375 melanoma cells; assay: XTT cell viability, A375 melanoma cells; assay type: cell-based; settings: 48 hours; A375 carry B-raf V600E, MeWo do not
Experimental: as §1, §2
A375 and MeWo melanoma cells are then treated in the presence of increasing doses of Simalikalactone E. 48 hours later, the cells are subjected to an XTT test. The A375 cells carry the V600E mutation on the B-raf oncogene, which is reflected by constitutive activation of the Erk pathway.

[11] = system: CD34+ Bcr-Abl+ primary cells from patients suffering from CML; assay: XTT viability of CD34+ human primary cells from CML patients; assay type: cell-based; settings: 48 hours
Experimental: The primary cells from patients suffering from CML (purified CD34+Bcr-Abl+) are incubated in the presence of variable concentrations of Simalikalactone E for 48 hours, and then the cell viability is quantified using an XTT colorimetric test. Imatinib (Ima) is used as a positive control for the induction of death of the Bcr-Abl+ cells.

[12] = system: gametocyte forms of Plasmodium falciparum; settings: compared with primaquine, reference molecule; cited from earlier work
[13] = system: Erk1/2 kinase (MAP kinase) phosphorylation; assay: Western blot of death markers and Erk1/2 phosphorylation, K562-Ima-S; assay type: cell-based
Experimental: as §4, §5
K562-Ima-S cells are then treated for 1 hour in the presence of 250 nM of Simalikalactone E or 10 μM of U0126 (specific inhibitor of MEK1/2, the kinase responsible for Erk1/2 (MAP kinase) phosphorylation and activation). The cells are then lyzed and protein extracts are prepared for western blot analysis. The membranes are then incubated in the presence of the p-Erk1/2, Erk1/2 and HSP60 antibodies.

Question: Which “Rafl-dependent Erk1/2 (MAP kinase) phosphorylation” value [1] does the source give for `N#CC(=C(/N)Sc1ccccc1N)/C(C#N)=C(\N)Sc1ccccc1N` [U0126, reference compound] here?
Answer: inhibit

Question: With `CCC(C)C(=O)O[C@@H]1[C@H]2C(C)=CC(=O)[C@@H](O)[C@]2(C)[C@H]2[C@@H](O)[C@H](O)[C@@]3(C)OC[C@@]24[C@@H]1OC(=O)[C@H](OC(=O)C(C)CC)[C@@H]34` (some centres unmarked) [Simalikalactone E] as the compound, how does the cytotoxic action [2] read?
Answer: moderate

Question: What about the “effect on viability in the presence of caspase inhibitor z-Vad-fmk” value ([3]; 50 μM z-Vad-fmk) of the same compound?
Answer: not modified

Question: And the “sensitivity (growth and viability)” value ([3]; 100 or 250 nM)?
Answer: sensitive

Question: What about the selectivity index ([4]; Vero cells versus Plasmodium falciparum) of the same compound?
Answer: greater than 100

Question: What about the IC50 ([4]; read-out: dose inhibiting 50% of the growth of Vero mammalian cells) of the same compound?
Answer: 6.57 µM

Question: What about the “effect on viability in the presence of caspase inhibitor z-Vad-fmk” value ([5]; 50 μM z-Vad-fmk) of the same compound?
Answer: not modified

Question: What about the “sensitivity (growth and viability)” value ([5]; 100 or 250 nM) of the same compound?
Answer: sensitive

Question: What about the “apoptosis marker (PARP cleavage)” value [6] of the same compound?
Answer: no cleavage of PARP

Question: And the “autophagy marker (LC3 conversion)” value [6]?
Answer: no modification of LC3

Question: And the “Erk1/2 kinase (MAP kinase) phosphorylation” value ([6]; variable periods of time, imatinib-resistant cells)?
Answer: inhibits

Question: And the “inhibition of clonogenic capacity” value [7]?
Answer: as effectively as imatinib

Question: What about the “dose inhibiting 50% of the growth of Plasmodium vinckei petteri” value ([8]; intraperitoneally) of the same compound?
Answer: 0.5 mg/kg/day

Question: What about the “dose inhibiting 50% of the growth of Plasmodium vinckei petteri” value ([8]; orally) of the same compound?
Answer: 1 mg/kg/day

Question: What about the dose tolerated [9] of the same compound?
Answer: 1 mg/kg/day

Question: What about the “sensitivity in XTT test compared with MeWo cells” value [10] of the same compound?
Answer: much more sensitive

Question: And the “inhibition of cell metabolism compared with imatinib” value ([11]; 500 nM)?
Answer: as effective as imatinib

Question: What about the EC50 ([11]; Homo sapiens, read-out: dose giving the half-maximum effect) of the same compound?
Answer: 0.1 µM

Question: And the “concentration reducing the gametocyte level by 50%, relative to primaquine” value [12]?
Answer: seven times lower

Question: And the “apoptosis marker (PARP cleavage)” value ([13]; 250 nM)?
Answer: no cleavage of PARP

Question: What about the “autophagy marker (LC3 conversion)” value ([13]; 250 nM) of the same compound?
Answer: no modification of LC3

Question: And the “concentration of U0126 relative to Simalikalactone E for equal effect (times higher)” value ([13]; 250 nM SkE versus 10 μM U0126)?
Answer: 40

Question: And the “inhibition of Erk1/2 phosphorylation compared with U0126” value ([13]; 250 nM SkE versus 10 μM U0126, 1 hour)?
Answer: as effective as U0126

Question: And the “Erk1/2 kinase (MAP kinase) phosphorylation” value ([13]; 250 nM, variable periods of time, imatinib-sensitive cells)?
Answer: inhibits

Question: And the “Rafl-dependent Erk1/2 (MAP kinase) phosphorylation” value [1]?
Answer: inhibit

Question: Which “dose inhibiting 50% of the growth of Plasmodium vinckei petteri” value ([8]; intraperitoneally) does the source give for `CCN(CC)CCCC(C)Nc1ccnc2cc(Cl)ccc12` (centres unmarked) [chloroquine, reference compound] here?
Answer: 3 mg/kg/day
